What all share (format): functional
In one test the test system is Bacillus subtilis. Kind of test: Antibacterial activity against Bacillus subtilis by two-fold serial dilution technique.
Test [1] relates to Escherichia coli. As to the kind of experiment: Antibacterial activity against Escherichia coli by two-fold serial dilution technique.
Test [2] has as its system Pseudomonas aeruginosa. As to the kind of experiment: Antibacterial activity against Pseudomonas aeruginosa by two-fold serial dilution technique.
For test [3], the system named is Staphylococcus aureus. As to the kind of experiment: Antibacterial activity against Staphylococcus aureus by two-fold serial dilution technique.
A further test relates to Klebsiella pneumoniae. As to the kind of experiment: Antibacterial activity against Klebsiella pneumoniae after 24 hrs by paper disc diffusion technique. Background: Agar diffusion results depend on both activity and mobility in agar.
The subject of test [4] is Pseudomonas aeruginosa. Kind of test: Antibacterial activity against Pseudomonas aeruginosa after 24 hrs by paper disc diffusion technique.
Test [5] relates to Staphylococcus aureus. Kind of test: Antibacterial activity against Staphylococcus aureus after 24 hrs by paper disc diffusion technique.
Test [6] has as its system Staphylococcus epidermidis. Kind of test: Antibacterial activity against Staphylococcus epidermidis after 24 hrs by paper disc diffusion technique.
The subject of test [7] is Escherichia coli. Kind of test: Antibacterial activity against Escherichia coli after 24 hrs by paper disc diffusion technique.
The next test relates to Micrococcus luteus. Kind of test: Antibacterial activity against Micrococcus luteus after 24 hrs by paper disc diffusion technique.
Test [8] relates to Staphylococcus aureus. Kind of test: Antibacterial activity against Staphylococcus aureus ATCC 25923 after 24 hrs by agar well diffusion technique. The settings on record: ATCC 25923, 24 h.
The subject of another test is Bacillus cereus. Kind of test: Antibacterial activity against Bacillus cereus after 24 hrs by agar well diffusion technique.
Test [9] relates to Escherichia coli. Kind of test: Antibacterial activity against Escherichia coli ATCC 25922 after 24 hrs by agar well diffusion technique. To be noted: ATCC 25922, 24 h.
A further test concerns Shigella dysenteriae. As to the kind of experiment: Antibacterial activity against Shigella dysenteriae after 24 hrs by agar well diffusion technique.
Setting [10] is: Klebsiella pneumoniae, 24 h, read-out: MIC.
Setting [11] is: Pseudomonas aeruginosa, 24 h, read-out: MIC.
The mark [12] stands for this setting: Staphylococcus aureus, 24 h, read-out: MIC.
The mark [13] stands for this setting: Staphylococcus epidermidis, 24 h, read-out: MIC.
The mark [14] stands for this setting: Escherichia coli, 24 h, read-out: MIC.
The mark [15] stands for this setting: Micrococcus luteus, 24 h, read-out: MIC.

Broadly, the MIC is the lowest concentration found to suppress growth.

Structures are written as SMILES. ≈ marks a conversion by molar mass, not a printed value.

For `O=C(N/N=C1\C(=O)Nc2ccc(F)cc21)N/N=C1\C(=O)Nc2ccc(F)cc21`, the MIC in the test with Bacillus subtilis, with Escherichia coli [1], with Pseudomonas aeruginosa [2] and in the test on Staphylococcus aureus [3] was 6.25 to 100 µg/mL (≈ 16.3 to 260 µM) each time.

As for `O=C(N/N=C1\C(=O)Nc2ccc([N+](=O)[O-])cc21)N/N=C1\C(=O)Nc2ccc([N+](=O)[O-])cc21`, the MIC against Bacillus subtilis, against Escherichia coli [1], with Pseudomonas aeruginosa [2] and in the test on Staphylococcus aureus [3] was 6.25 to 100 µg/mL (≈ 14.3 to 228 µM) each time.

For the compound `COc1cc(/C=N/c2ccc(/N=C3/C(=O)N(CN4CCN(c5cc6c(cc5F)c(=O)c(C(=O)O)cn6C5CC5)CC4)c4ccc(F)cc43)cc2)ccc1O`, the MIC (in the test on Klebsiella pneumoniae (setting [10]); in the test on Pseudomonas aeruginosa [4] (setting [11]); with Staphylococcus aureus [5] (setting [12]); in test [6] (setting [13]); in the test on Escherichia coli [7] (setting [14]); in the test on Micrococcus luteus (setting [15])) was 7.81 to 125 µg/mL (≈ 10.7 to 171 µM) in each case.

On to `O=C(N/N=C1\C(=O)N(Cc2ccccc2)c2ccc(Cl)cc21)N/N=C1\C(=O)N(Cc2ccccc2)c2ccc(Cl)cc21`, for which the MIC in the test on Bacillus subtilis, in the test with Escherichia coli [1], against Pseudomonas aeruginosa [2] and against Staphylococcus aureus [3] was 6.25 to 100 µg/mL (≈ 10.5 to 167 µM) in each case.

Turning to `O=C(N/N=C1\C(=O)Nc2ccccc21)N/N=C1\C(=O)Nc2ccccc21`, the MIC in the test on Bacillus subtilis, with Escherichia coli [1], in the test with Pseudomonas aeruginosa [2] and in the test on Staphylococcus aureus [3] was 6.25 to 100 µg/mL (≈ 17.9 to 287 µM) in each case.

Turning to `O=C(N/N=C1\C(=O)Nc2ccc(C(=O)O)cc21)N/N=C1\C(=O)Nc2ccc(C(=O)O)cc21`, the MIC with Bacillus subtilis, with Escherichia coli [1], with Pseudomonas aeruginosa [2] and in the test with Staphylococcus aureus [3] was 6.25 to 100 µg/mL (≈ 14.3 to 229 µM) in each case.

On to `COc1ccc(/C=N/c2ccc(/N=C3/C(=O)N(CN4CCN(c5cc6c(cc5F)c(=O)c(C(=O)O)cn6C5CC5)CC4)c4ccc(F)cc43)cc2)cc1`, for which the MIC (in the test on Klebsiella pneumoniae (setting [10]); in the test on Pseudomonas aeruginosa [4] (setting [11]); with Staphylococcus aureus [5] (setting [12]); in [6] (setting [13]); with Escherichia coli [7] (setting [14]); in the test on Micrococcus luteus (setting [15])) was 7.81 to 125 µg/mL (≈ 10.9 to 174 µM) throughout.

For `Cc1cc(NS(=O)(=O)c2ccc(/N=C3\C(=O)Nc4ccc(Cl)cc43)cc2)no1`, the MIC against Staphylococcus aureus [8], with Bacillus cereus, in the test on Escherichia coli [9] and against Shigella dysenteriae was 1 to 15 µg/mL (≈ 2.4 to 36 µM) throughout.

Turning to `Cc1ccc2c(c1)/C(=N/NC(=O)N/N=C1\C(=O)N(Cc3ccccc3)c3ccc(C)cc31)C(=O)N2Cc1ccccc1`, the MIC in the test on Bacillus subtilis, against Escherichia coli [1], in the test on Pseudomonas aeruginosa [2] and against Staphylococcus aureus [3] was 6.25 to 100 µg/mL (≈ 11.2 to 180 µM) each time.

Take `O=C(O)c1cn(C2CC2)c2cc(N3CCN(CN4C(=O)/C(=N/c5ccc(/N=C/c6ccccc6O)cc5)c5cc(F)ccc54)CC3)c(F)cc2c1=O`: the MIC (in the test on Klebsiella pneumoniae (setting [10]); with Pseudomonas aeruginosa [4] (setting [11]); in the test with Staphylococcus aureus [5] (setting [12]); in test [6] (setting [13]); in the test on Escherichia coli [7] (setting [14]); in the test on Micrococcus luteus (setting [15])) was 7.81 to 125 µg/mL (≈ 11.1 to 178 µM) in each case.

As for `O=C(N/N=C1\C(=O)N(Cc2ccccc2)c2ccccc21)N/N=C1\C(=O)N(Cc2ccccc2)c2ccccc21`, the MIC in the test with Bacillus subtilis, against Escherichia coli [1], with Pseudomonas aeruginosa [2] and against Staphylococcus aureus [3] was 6.25 to 100 µg/mL (≈ 11.8 to 189 µM) each time.

For `O=C(O)c1cn(C2CC2)c2cc(N3CCN(CN4C(=O)/C(=N/c5ccc(/N=C/c6cccc([N+](=O)[O-])c6)cc5)c5cc(F)ccc54)CC3)c(F)cc2c1=O`, the MIC (in the test on Klebsiella pneumoniae (setting [10]); with Pseudomonas aeruginosa [4] (setting [11]); with Staphylococcus aureus [5] (setting [12]); in [6] (setting [13]); in the test with Escherichia coli [7] (setting [14]); in the test on Micrococcus luteus (setting [15])) was 7.81 to 125 µg/mL (≈ 10.7 to 171 µM) throughout.

As for `Cc1cc(NS(=O)(=O)c2ccc(N)cc2)no1` [SULFAMETHOXAZOLE], the MIC against Staphylococcus aureus [8], against Bacillus cereus, in the test with Escherichia coli [9] and against Shigella dysenteriae was 2.5 µg/mL (≈ 9.87 µM) in each case.

For `O=C(N/N=C1\C(=O)Nc2ccc(Br)cc21)N/N=C1\C(=O)Nc2ccc(Br)cc21`, the MIC against Bacillus subtilis, in the test on Escherichia coli [1], against Pseudomonas aeruginosa [2] and in the test on Staphylococcus aureus [3] was 6.25 to 100 µg/mL (≈ 12.3 to 198 µM) each time.

`Cc1ccc2c(c1)/C(=N/NC(=O)N/N=C1\C(=O)Nc3ccc(C)cc31)C(=O)N2`: the MIC in the test on Bacillus subtilis, against Escherichia coli [1], in the test with Pseudomonas aeruginosa [2] and in the test on Staphylococcus aureus [3] was 6.25 to 100 µg/mL (≈ 16.6 to 266 µM) throughout.

As for `O=C(N/N=C1\C(=O)Nc2ccc(Cl)cc21)N/N=C1\C(=O)Nc2ccc(Cl)cc21`, the MIC in the test on Bacillus subtilis, against Escherichia coli [1], against Pseudomonas aeruginosa [2] and against Staphylococcus aureus [3] was 6.25 to 100 µg/mL (≈ 15 to 240 µM) in each case.

Turning to `COc1cc(/C=N/c2ccc(/N=C3/C(=O)N(CN4CCN(c5cc6c(cc5F)c(=O)c(C(=O)O)cn6C5CC5)CC4)c4ccc(F)cc43)cc2)cc(OC)c1OC`, the MIC (in the test with Klebsiella pneumoniae (setting [10]); with Pseudomonas aeruginosa [4] (setting [11]); in the test on Staphylococcus aureus [5] (setting [12]); in [6] (setting [13]); in the test on Escherichia coli [7] (setting [14]); in the test on Micrococcus luteus (setting [15])) was 7.81 to 125 µg/mL (≈ 10.1 to 161 µM) throughout.

For the compound `O=C(O)c1cn(C2CC2)c2cc(N3CCN(CN4C(=O)/C(=N/c5ccc(/N=C/c6ccc(Cl)cc6)cc5)c5cc(F)ccc54)CC3)c(F)cc2c1=O`, the MIC (in the test with Klebsiella pneumoniae (setting [10]); with Pseudomonas aeruginosa [4] (setting [11]); with Staphylococcus aureus [5] (setting [12]); in test [6] (setting [13]); in the test on Escherichia coli [7] (setting [14]); in the test with Micrococcus luteus (setting [15])) was 7.81 to 125 µg/mL (≈ 10.8 to 173 µM) throughout.

With `O=C(O)c1cn(C2CC2)c2cc(N3CCN(CN4C(=O)/C(=N/c5ccc(/N=C/c6ccc(O)cc6)cc5)c5cc(F)ccc54)CC3)c(F)cc2c1=O`, the MIC lay in the range of 7.81 to 15.62 µg/mL in the test on Klebsiella pneumoniae; 7.81 to 125 µg/mL (≈ 11.1 to 178 µM) with Klebsiella pneumoniae (setting [10]); 7.81 to 15.62 µg/mL in the test on Pseudomonas aeruginosa [4]; 7.81 to 125 µg/mL (≈ 11.1 to 178 µM) with Pseudomonas aeruginosa [4] (setting [11]); 7.81 to 15.62 µg/mL in the test with Staphylococcus aureus [5]; 7.81 to 125 µg/mL (≈ 11.1 to 178 µM) in the test on Staphylococcus aureus [5] (setting [12]). The minimal inhibitory concentration (MIC) in test [6] fell in the range of 7.81 to 15.62 µg/mL; in test [6] (setting [13]), 7.81 to 125 µg/mL (≈ 11.1 to 178 µM); against Escherichia coli [7], 7.81 to 15.62 µg/mL; with Escherichia coli [7] (setting [14]), 7.81 to 125 µg/mL (≈ 11.1 to 178 µM); in the test on Micrococcus luteus, 7.81 to 15.62 µg/mL; in the test on Micrococcus luteus (setting [15]), 7.81 to 125 µg/mL (≈ 11.1 to 178 µM).

`O=C(O)c1cn(C2CC2)c2cc(N3CCN(CN4C(=O)/C(=N/c5ccc(/N=C/c6ccccc6)cc5)c5cc(F)ccc54)CC3)c(F)cc2c1=O`: the MIC (in the test on Klebsiella pneumoniae (setting [10]); in the test on Pseudomonas aeruginosa [4] (setting [11]); in the test on Staphylococcus aureus [5] (setting [12]); in [6] (setting [13]); with Escherichia coli [7] (setting [14]); with Micrococcus luteus (setting [15])) was 7.81 to 125 µg/mL (≈ 11.4 to 182 µM) throughout.

Consider `Cc1ccc(/C=N/c2ccc(/N=C3/C(=O)N(CN4CCN(c5cc6c(cc5F)c(=O)c(C(=O)O)cn6C5CC5)CC4)c4ccc(F)cc43)cc2)cc1`, for which the MIC (in the test with Klebsiella pneumoniae (setting [10]); in the test on Pseudomonas aeruginosa [4] (setting [11]); with Staphylococcus aureus [5] (setting [12]); in [6] (setting [13]); in the test on Escherichia coli [7] (setting [14]); in the test with Micrococcus luteus (setting [15])) was 7.81 to 125 µg/mL (≈ 11.1 to 178 µM) throughout.

As to `COc1cc(/C=N/N2C(N)=NNC23C(=O)Nc2ccc(C)cc23)ccc1O` (stereo not drawn), the MIC in the test with Staphylococcus aureus [8], in the test with Bacillus cereus, against Escherichia coli [9] and in the test on Shigella dysenteriae was 1 to 15 µg/mL (≈ 2.73 to 40.9 µM) in each case.

Turning to `CN(C)c1ccc(/C=N/c2ccc(/N=C3/C(=O)N(CN4CCN(c5cc6c(cc5F)c(=O)c(C(=O)O)cn6C5CC5)CC4)c4ccc(F)cc43)cc2)cc1`, the MIC (with Klebsiella pneumoniae (setting [10]); in the test on Pseudomonas aeruginosa [4] (setting [11]); in the test with Staphylococcus aureus [5] (setting [12]); in [6] (setting [13]); with Escherichia coli [7] (setting [14]); in the test on Micrococcus luteus (setting [15])) was 7.81 to 125 µg/mL (≈ 10.7 to 171 µM) throughout.
